What all share (assay type): biochemical
Assay [1] concerns the target T1, Dog sEH (Canis lupus familiaris, UniProt A0A8I3NJL8).
T1 sequence (A0A8I3NJL8 1-556): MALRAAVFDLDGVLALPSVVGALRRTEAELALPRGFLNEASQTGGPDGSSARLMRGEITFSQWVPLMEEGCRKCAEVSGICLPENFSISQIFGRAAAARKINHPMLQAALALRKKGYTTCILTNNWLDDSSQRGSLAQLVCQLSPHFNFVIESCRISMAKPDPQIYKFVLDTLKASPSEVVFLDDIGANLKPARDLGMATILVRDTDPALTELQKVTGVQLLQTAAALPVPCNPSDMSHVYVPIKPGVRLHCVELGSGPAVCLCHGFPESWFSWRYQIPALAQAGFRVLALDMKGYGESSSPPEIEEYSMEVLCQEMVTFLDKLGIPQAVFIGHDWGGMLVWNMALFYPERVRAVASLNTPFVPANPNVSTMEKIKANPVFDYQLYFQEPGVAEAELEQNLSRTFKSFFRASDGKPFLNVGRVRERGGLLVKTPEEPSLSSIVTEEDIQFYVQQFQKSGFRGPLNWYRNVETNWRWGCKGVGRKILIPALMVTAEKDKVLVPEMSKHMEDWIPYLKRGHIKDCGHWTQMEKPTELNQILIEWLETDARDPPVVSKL
In words: Primary screen (end point) of the sEH inhibitor library, PHOME substrate. The settings on record: [I] = 100 nM, primary end-point screening; read-out: Dog sEH Inhibition (%) P. Here is the method: Primary screening of the library was performed with an inhibitor concentration of 100 nM using PHOME as substrate ([22]). […] The plates were then mixed and incubated at 30°C for 5 min. Across each plate, 30 μL of the working substrate solution (270 μL of 5 mM PHOME solution in DMSO diluted with 3,680 μL of buffer) were added quickly to yield [S]final: 50 μM. Each plate was further incubated at room temperature (horse sEH: 60 min; cat sEH: 45 min; dog sEH: 30 min).

In assay [2] the target is T2, Horse sEH (Equus caballus, UniProt F7C407). As to the kind of experiment: Secondary screen (kinetic mode), PHOME substrate. The settings on record: [I] = 100 nM, secondary kinetic mode screening; read-out: Horse sEH Inhibition (%) S.
Assay [3] has as its target T2, Horse sEH. The settings on record: CMNPC ([S]final = 5 μM) as substrate; average ± standard deviation (n = 3). The method, then: (§1) The sEH activity from the cat, dog and horse liver was further purified to eliminate contaminating esterase activity that could interfere with the screening fluorescent assay ([16]). The cytosolic fraction was loaded on a Q-Sepharose column (100 mL) equilibrated with sodium phosphate buffer (20 mM pH 7.4). After washing of the bound proteins, the sEH activity was eluted with a step gradient of NaCl (0–1 M). The fractions containing the sEH activity were pooled and concentrated using a Centriprep-30. The concentrates were aliquoted and flash frozen, then kept frozen at −80°C until usage. […] Protein concentration was quantified using the Pierce BCA assay (Pierce, Rockford, IL), using Fraction V bovine serum albumin (BSA) as the calibrating standard.
(§2) The IC50 values reported herein were determined using either a fluorescent based assay (CMNPC as substrate) for purified enzyme preparations or a radioactive based assay ([^3H]t-DPPO as substrate) for crude enzyme preparations ([20]). The fluorescent assay was used with the purified proteins. […] The substrate (CMNPC) was then added ([S]final = 5 μM). […] The radioactive […] assay was used with the liver crude extracts. […]

Assay [4] deals with T1, Dog sEH. In words: sEH inhibition potency (IC50), fluorescent assay with CMNPC, partially purified enzyme. The settings on record: CMNPC ([S]final = 5 μM) as substrate; average ± standard deviation (n = 3). Here is the method:
as §1, §2

The target in assay [5] is T3, sEH activity from liver cytosol of Pig (Sus scrofa, UniProt Q6Q2C2).
T3 construct: The radioactive fluorescent assay was used with the liver crude extracts; from tissue; host or cells: pig liver cytosol (100,000 g supernatant)
T3 sequence (Q6Q2C2 1-555): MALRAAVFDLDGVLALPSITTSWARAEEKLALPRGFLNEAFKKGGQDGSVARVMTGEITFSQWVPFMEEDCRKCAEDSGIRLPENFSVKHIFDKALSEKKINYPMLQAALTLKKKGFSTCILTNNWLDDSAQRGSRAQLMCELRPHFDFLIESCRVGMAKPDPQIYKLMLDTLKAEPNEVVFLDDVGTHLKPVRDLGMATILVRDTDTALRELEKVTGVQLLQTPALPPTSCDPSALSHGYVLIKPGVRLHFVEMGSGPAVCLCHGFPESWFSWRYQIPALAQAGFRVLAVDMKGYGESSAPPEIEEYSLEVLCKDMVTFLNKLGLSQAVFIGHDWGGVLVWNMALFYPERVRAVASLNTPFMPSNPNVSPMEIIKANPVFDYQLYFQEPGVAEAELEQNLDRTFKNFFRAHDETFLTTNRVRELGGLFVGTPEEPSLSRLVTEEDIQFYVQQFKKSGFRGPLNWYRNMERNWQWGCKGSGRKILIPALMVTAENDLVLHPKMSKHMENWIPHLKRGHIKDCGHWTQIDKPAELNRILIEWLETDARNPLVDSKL
As to the kind of experiment: sEH inhibition potency (IC50), radioactive assay with [3H]t-DPPO, liver cytosol. From the text:
(§3) Fresh liver tissues samples (5–30 g) were collected promptly after death from healthy adult cat, dog and horse euthanized for reasons unrelated to this study, and whose bodies were given to science by the owners in line with federal regulations and protocol approved by the Institutional Animal Care and Use Committee at University of California Davis. Similarly, tissues from the other animals tested herein were collected from healthy animals immediately after being slaughter at the university abattoir. Because no animals were directly used or killed for this study, sample collections were exempted from approval by the Institutional Animal Care and Use Committee of the University of California Davis and Michigan State University. […] The tissues were flash-frozen in liquid nitrogen following removal, and then kept at −80°C until used. After thawing on ice, the samples were homogenized in chilled sodium phosphate buffer (20 mM pH 7.4) containing 5 mM EDTA, 1 mM DTT and 1 mM PMSF (tissue weight:buffer volume ratio 1:4). These homogenates were centrifuged at 100,000 g for 60 min at 4°C. The supernatant (the cytosolic fraction) was separated from the pellet, aliquoted and flash frozen in liquid nitrogen, then kept frozen at −80°C until usage.
(§4) The IC50 values reported herein were determined using either a fluorescent based assay (CMNPC as substrate) for purified enzyme preparations or a radioactive based assay ([^3H]t-DPPO as substrate) for crude enzyme preparations ([20]). The fluorescent assay was used with the purified proteins. […] The substrate (CMNPC) was then added ([S]final = 5 μM). […] The radioactive […] assay was used with the liver crude extracts. Extracts were incubated with inhibitors ([I]final = 1–1,000 nM) at 30° C for 5 min in sodium phosphate buffer (pH 7.4) containing 0.1 mg/mL of BSA and 1% of DMSO, prior to substrate introduction ([^3H]t-DPPO [S]final: 50 μM; ~12,000 dpm/assay). The enzymes were incubated at 30°C for 10 min, and the reaction was quenched by the addition of 60 μL methanol and 200 μL isooctane, which extracts the remaining epoxide from the aqueous phase. […] Assays were performed in triplicate.

The target of assay [6] is sEH activity from liver cytosol of Sheep (Ovis aries, UniProt A0ACI6PZ20). The description is as above.
Description: as §3, §4

Setting [7] is: liver cytosol, [3H]t-DPPO ([S]final = 5 μM) as substrate, read-out: IC50 (nM) Pig.
Where [8] appears, read: [3H]t-DPPO ([S]final = 5 μM) as substrate, read-out: IC50 (nM) Sheep.

Where two headings read alike, the source gives them in different places. Where only a bound is given, the exact number is not on record here.

T2 sequence (F7C407 entry or part of it): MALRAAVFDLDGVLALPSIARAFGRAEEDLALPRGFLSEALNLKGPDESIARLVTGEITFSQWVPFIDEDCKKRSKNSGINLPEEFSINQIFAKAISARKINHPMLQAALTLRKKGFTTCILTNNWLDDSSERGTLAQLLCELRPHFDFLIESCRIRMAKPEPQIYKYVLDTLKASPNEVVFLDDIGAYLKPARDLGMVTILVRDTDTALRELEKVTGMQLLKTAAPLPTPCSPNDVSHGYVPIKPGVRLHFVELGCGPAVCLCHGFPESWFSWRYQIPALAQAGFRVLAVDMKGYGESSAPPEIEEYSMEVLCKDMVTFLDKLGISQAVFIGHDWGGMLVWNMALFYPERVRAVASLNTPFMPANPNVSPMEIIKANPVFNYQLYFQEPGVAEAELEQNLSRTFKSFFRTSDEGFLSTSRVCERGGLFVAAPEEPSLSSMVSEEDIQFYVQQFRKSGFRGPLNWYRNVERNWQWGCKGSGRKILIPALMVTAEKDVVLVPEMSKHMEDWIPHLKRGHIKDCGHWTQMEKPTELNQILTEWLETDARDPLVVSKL
Sequence of sEH activity from liver cytosol of Sheep (A0ACI6PZ20 entry or part of it): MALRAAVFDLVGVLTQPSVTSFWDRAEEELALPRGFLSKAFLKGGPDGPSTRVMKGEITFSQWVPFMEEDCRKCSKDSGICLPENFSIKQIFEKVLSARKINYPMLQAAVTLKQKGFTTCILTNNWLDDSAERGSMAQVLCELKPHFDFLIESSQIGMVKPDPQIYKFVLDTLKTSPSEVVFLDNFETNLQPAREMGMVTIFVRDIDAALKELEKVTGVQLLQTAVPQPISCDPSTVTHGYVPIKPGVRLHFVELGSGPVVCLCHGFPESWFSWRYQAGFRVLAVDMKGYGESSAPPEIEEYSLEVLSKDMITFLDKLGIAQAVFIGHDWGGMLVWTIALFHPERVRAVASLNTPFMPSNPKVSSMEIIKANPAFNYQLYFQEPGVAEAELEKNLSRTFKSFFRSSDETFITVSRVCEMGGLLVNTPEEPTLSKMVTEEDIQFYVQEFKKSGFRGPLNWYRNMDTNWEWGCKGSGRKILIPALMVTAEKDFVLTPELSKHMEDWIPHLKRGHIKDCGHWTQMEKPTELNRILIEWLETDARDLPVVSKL

For `N#CNC(=O)CCCCCCCCCCCNC(=O)NC12CC3CC(CC(C3)C1)C2` [1,845], the values for the inhibition at 0.1 µM at Dog sEH [1] and at Horse sEH [2] were 95% and 88%, respectively. Besides, the concentration for half-maximal inhibition (IC50) against Horse sEH [3] worked out at 0.4 ± 0.01 nM; against Dog sEH [4], 0.6 ± 0.04 nM; in assay [5] (setting [7]) it was 81 nM; in assay [6] (setting [8]), 7 nM.

Take `O=C(NCCCCOc1ccc(F)cc1)NC12CC3CC(CC(C3)C1)C2` [1,707]: the inhibition at 0.1 µM on Dog sEH [1] is under 90%; on Horse sEH [2], 87%. The concentration for half-maximal inhibition (IC50) on Horse sEH [3] came out at 0.5 ± 0.03 nM; against Dog sEH [4] it was 0.9 ± 0.1 nM; in assay [5] (setting [7]) it was 6 nM; in assay [6] (setting [8]), 2 nM.

In the case of `O=C(Nc1ccc(OC(F)(F)F)cc1)N[C@H]1CC[C@H](Oc2ccc(C(=O)O)cc2)CC1` [1,728, trans-4-{4-[3-(4-trifluoromethoxy-phenyl)-ureido]-cyclohexyloxy}-benzoic acid], the half-maximal inhibitory concentration (IC50) was 9 nM in assay [5] and 6 nM in assay [6] (read-out: IC50 (nM) Sheep, [3H]t-DPPO ([S]final = 5 μM) as substrate).

These data come from publication PMC7479175, “Selection of Potent Inhibitors of Soluble Epoxide Hydrolase for Usage in Veterinary Medicine” (Frontiers in Veterinary Science, 2020).
